The values that follow come from patent US10040759B2, “Substituted azetidinyl compounds as GlyT1 inhibitors” (DART NEUROSCIENCE (CAYMAN) LTD., priority 2014, dated 2018).

For this assay, the target named is T1, GlyT1 (Homo sapiens, UniProt P48067).
T1 construct: expressed in transfected cells
T1 sequence (P48067 1-706): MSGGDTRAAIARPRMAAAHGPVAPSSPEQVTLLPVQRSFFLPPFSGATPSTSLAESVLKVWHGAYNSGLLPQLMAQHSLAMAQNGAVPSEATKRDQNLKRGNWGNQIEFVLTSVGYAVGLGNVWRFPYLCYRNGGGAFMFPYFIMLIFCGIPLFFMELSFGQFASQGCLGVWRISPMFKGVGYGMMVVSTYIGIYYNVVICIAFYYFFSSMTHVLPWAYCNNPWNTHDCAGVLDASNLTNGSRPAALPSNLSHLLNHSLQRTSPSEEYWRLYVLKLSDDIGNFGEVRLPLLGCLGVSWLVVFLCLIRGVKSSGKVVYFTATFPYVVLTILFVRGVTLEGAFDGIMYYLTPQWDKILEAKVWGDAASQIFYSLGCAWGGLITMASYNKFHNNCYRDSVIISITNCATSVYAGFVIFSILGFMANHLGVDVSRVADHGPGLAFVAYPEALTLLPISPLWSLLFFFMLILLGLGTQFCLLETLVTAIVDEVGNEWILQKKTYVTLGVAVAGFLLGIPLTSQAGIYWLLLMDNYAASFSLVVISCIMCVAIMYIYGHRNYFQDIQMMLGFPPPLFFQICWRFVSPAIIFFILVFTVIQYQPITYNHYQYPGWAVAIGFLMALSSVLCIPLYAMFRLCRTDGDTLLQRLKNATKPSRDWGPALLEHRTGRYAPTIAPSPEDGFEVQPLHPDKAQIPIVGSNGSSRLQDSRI
In words: Glycine Transporter 1 (GlyT1) uptake assay, scintillation proximity assay of [14C]-glycine uptake. It counts as cell-based. Particulars: [14C]-glycine uptake; read-out: GlyT1 (pIC50) (converted). Summed up:
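IC50 values were derived by four-parameter logistic fitting of counts. The 2× compound solutions were made by 1:100 dilution into HBSS of DMSO serial dilutions.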

Molecules are shown by their SMILES. Bounds are passed on as bounds.

As to `COc1cc(C(F)(F)F)cnc1C1CN(C(=O)c2c(O[C@@H](C)C(F)(F)F)ccc(C#N)c2OC)C1` [Example 9, (S)-2-methoxy-3-(3-(3-methoxy-5-(trifluoromethyl)pyridin-2-yl)azetidine-1-carbonyl)-4-((1,1,1-trifluoropropan-2-yl)oxy)benzonitrile], the IC50 is < 100 nM.

Consider `COc1c(S(C)(=O)=O)ccc(O[C@@H](C)C(F)(F)F)c1C(=O)N1CC(c2ccc(C3CCOCC3)cc2)C1` [Example 168, 1-(3-Methanesulfonyl-2-methoxy-6-{[(2S)-1,1,1-trifluoropropan-2-yl]oxy}benzoyl)-3-[4-(oxan-4-yl)phenyl]azetidine], for which the IC50 was < 100 nM.

For the compound `COc1c(C#N)ccc(OC(C)C(F)(F)F)c1C(=O)N1CC(c2cncc(C)c2)C1` (stereo not shown) [Example 111, 2-Methoxy-3-{[3-(5-methylpyridin-3-yl)azetidin-1-yl]carbonyl}-4-[(1,1,1-trifluoropropan-2-yl)oxy]benzonitrile], the IC50 is 100 to 1000 nM.

As to `COc1c(S(C)(=O)=O)ccc(O[C@H](C)C(F)(F)F)c1C(=O)N1CC(c2ccc(C(F)(F)F)c(F)c2)C1` [Example 140, 3-[3-Fluoro-4-(trifluoromethyl)phenyl]-1-(3-methanesulfonyl-2-methoxy-6-{[(2R)-1,1,1-trifluoropropan-2-yl]oxy}benzoyl)azetidine], the IC50 was 100 to 1000 nM.

Take `CC(Oc1ccc(C#N)c(Cl)c1C(=O)N1CC(Oc2ccc(F)c(F)c2)C1)C(F)(F)F` (stereo not shown) [Example 68, 2-Chloro-3-{[3-(3,4-difluorophenoxy)azetidin-1-yl]carbonyl}-4-[(1,1,1-trifluoropropan-2-yl)oxy]benzonitrile]: the IC50 is 100 to 1000 nM.

In the case of `COc1c(C#N)ccc(O[C@@H](C)C(F)(F)F)c1C(=O)N1CC(Oc2ccc(F)cc2)C1` [Example 33, 3-{[3-(4-Fluorophenoxy)azetidin-1-yl]carbonyl}-2-methoxy-4-{[(2S)-1,1,1-trifluoropropan-2-yl]oxy}benzonitrile], the IC50 is 1000 to 10000 nM.

Turning to `COc1c(S(C)(=O)=O)ccc(O[C@H](C)C(F)(F)F)c1C(=O)N1CC(Cc2ccc(C(F)(F)F)cc2)C1` [Example 149, 1-(3-Methanesulfonyl-2-methoxy-6-{[(2R)-1,1,1-trifluoropropan-2-yl]oxy}benzoyl)-3-{[4-(trifluoromethyl)phenyl]methyl}azetidine], the IC50 was < 100 nM.

As to `CC(Oc1ccc(C#N)c(Cl)c1C(=O)N1CC(c2ccccc2F)C1)C(F)(F)F` (stereo not shown) [Example 87, 2-Chloro-3-{[3-(2-fluorophenyl)azetidin-1-yl]carbonyl}-4-[(1,1,1-trifluoropropan-2-yl)oxy]benzonitrile], the IC50 was 100 to 1000 nM.

As for `COc1c(C#N)ccc(O[C@@H](C)C(F)(F)F)c1C(=O)N1CC(c2ccc(C3CCOC(C)(C)C3)cc2)C1` (stereo partly drawn) [Example 160, 3-{3-[4-(2,2-Dimethyloxan-4-yl)phenyl]azetidine-1-carbonyl}-2-methoxy-4-{[(2S)-1,1,1-trifluoropropan-2-yl]oxy}benzonitrile], the IC50 was < 100 nM.

With `COc1c(S(C)(=O)=O)ccc(OCC(F)(F)F)c1C(=O)N1CC(Oc2ccc(F)cc2C)C1` [Example 224, 3-(4-Fluoro-2-methylphenoxy)-1-[3-methanesulfonyl-2-methoxy-6-(2,2,2-trifluoroethoxy)benzoyl]azetidine], the IC50 was 100 to 1000 nM.

As for `COc1c(S(C)(=O)=O)ccc(O[C@@H](C)C(F)(F)F)c1C(=O)N1CC(Oc2ccc(F)c(F)c2)C1` [Example 195, 3-(3,4-Difluorophenoxy)-1-(3-methanesulfonyl-2-methoxy-6-{[(2S)-1,1,1-trifluoropropan-2-yl]oxy}benzoyl)azetidine], the IC50 was 100 to 1000 nM.

Take `CC(Oc1ccc(C#N)c(Cl)c1C(=O)N1CC(c2cccc(C(F)(F)F)c2)C1)C(F)(F)F` (stereo not shown) [Example 85, 2-Chloro-3-({3-[3-(trifluoromethyl)phenyl]azetidin-1-yl}carbonyl)-4-[(1,1,1-trifluoropropan-2-yl)oxy]benzonitrile]: the IC50 is 100 to 1000 nM.

For `COc1c(S(C)(=O)=O)ccc(OCC(F)(F)F)c1C(=O)N1CC(c2ncc(C(F)(F)F)cc2Cl)C1` [Example 230, 3-Chloro-2-{1-[3-methanesulfonyl-2-methoxy-6-(2,2,2-trifluoroethoxy)benzoyl]azetidin-3-yl}-5-(trifluoromethyl)pyridine], the IC50 is 100 to 1000 nM.

For the compound `COc1c(C#N)ccc(O[C@@H](C)C(F)(F)F)c1C(=O)N1CC(F)(c2ccc(F)c(F)c2)C1` [Example 70, 3-{[3-(3,4-Difluorophenyl)-3-fluoroazetidin-1-yl]carbonyl}-2-methoxy-4-{[(2S)-1,1,1-trifluoropropan-2-yl]oxy}benzonitrile], the IC50 was 100 to 1000 nM.

Consider `COc1c(S(C)(=O)=O)ccc(O[C@@H](C)C(F)(F)F)c1C(=O)N1CC(c2cccc(F)c2Cl)C1` [Example 253, 3-(2-Chloro-3-fluorophenyl)-1-(3-methanesulfonyl-2-methoxy-6-{[(2S)-1,1,1-trifluoropropan-2-yl]oxy}benzoyl)azetidine], for which the IC50 is < 100 nM.

As for `COc1c(C#N)ccc(OC(C)C(F)(F)F)c1C(=O)N1CC(c2ccc(Cl)cc2)C1` (stereo not shown) [Example 97, 3-{[3-(4-Chlorophenyl)azetidin-1-yl]carbonyl}-2-methoxy-4-[(1,1,1-trifluoropropan-2-yl)oxy]benzonitrile], the IC50 is 100 to 1000 nM.

Regarding `C[C@H](Oc1ccc(C#N)c(Cl)c1C(=O)N1CC(c2ccccc2)C1)C(F)(F)F` [Example 54, 2-Chloro-3-(3-phenylazetidine-1-carbonyl)-4-{[(2S)-1,1,1-trifluoropropan-2-yl]oxy}benzonitrile], the IC50 is 100 to 1000 nM.

In the case of `CC(Oc1ccc(C#N)c(Cl)c1C(=O)N1CC(Oc2ccc(F)cc2)C1)C(F)(F)F` (stereo not shown) [Example 73, 2-Chloro-3-{[3-(4-fluorophenoxy)azetidin-1-yl]carbonyl}-4-[(1,1,1-trifluoropropan-2-yl)oxy]benzonitrile], the IC50 is < 100 nM.

Consider `COc1c(S(C)(=O)=O)ccc(O[C@@H](C)C(F)(F)F)c1C(=O)N1CC(Oc2c(F)cc(F)cc2F)C1` [Example 59, 1-(3-Methanesulfonyl-2-methoxy-6-{[(2S)-1,1,1-trifluoropropan-2-yl]oxy}benzoyl)-3-(2,4,6-trifluorophenoxy)azetidine], for which the IC50 is < 100 nM.

Consider `COc1cc(C(F)(F)F)ccc1C1CN(C(=O)c2c(O[C@@H](C)C(F)(F)F)ccc(C#N)c2OC)C1` [Example 129, 2-Methoxy-3-({3-[2-methoxy-4-(trifluoromethyl)phenyl]azetidin-1-yl}carbonyl)-4-{[(2S)-1,1,1-trifluoropropan-2-yl]oxy}benzonitrile], for which the IC50 is 100 to 1000 nM.

`COc1c(C#N)ccc(OC(C)C(F)(F)F)c1C(=O)N1CC(c2ccccc2F)C1` (stereo not shown) [Example 92, 3-{[3-(2-Fluorophenyl)azetidin-1-yl]carbonyl}-2-methoxy-4-[(1,1,1-trifluoropropan-2-yl)oxy]benzonitrile]: the IC50 is 100 to 1000 nM.

Take `COc1c(S(C)(=O)=O)ccc(O[C@@H](C)C(F)(F)F)c1C(=O)N1CC(Oc2ccc(Cl)cc2)C1` [Example 201, 3-(4-Chlorophenoxy)-1-(3-methanesulfonyl-2-methoxy-6-{[(2S)-1,1,1-trifluoropropan-2-yl]oxy}benzoyl)azetidine]: the IC50 was < 100 nM.

Turning to `COc1c(S(C)(=O)=O)ccc(OC(C)C)c1C(=O)N1CC(c2ccc3ncoc3c2)C1` [Example 248, 6-{1-[3-Methanesulfonyl-2-methoxy-6-(propan-2-yloxy)benzoyl]azetidin-3-yl}-1,3-benzoxazole], the IC50 was < 100 nM.

`COc1c(C#N)ccc(OC(C)C(F)(F)F)c1C(=O)N1CC(c2ccncc2)C1` (stereo not shown) [Example 75, 2-Methoxy-3-{[3-(pyridin-4-yl)azetidin-1-yl]carbonyl}-4-[(1,1,1-trifluoropropan-2-yl)oxy]benzonitrile]: the IC50 was 1000 to 10000 nM.

Turning to `COc1c(C#N)ccc(C2(F)CCC2)c1C(=O)N1CC(c2ccc(C#N)cc2Cl)C1` [Example 134, 3-{[3-(2-Chloro-4-cyanophenyl)azetidin-1-yl]carbonyl}-4-(1-fluorocyclobutyl)-2-methoxybenzonitrile], the IC50 is < 100 nM.

Regarding `COc1c(C#N)ccc(C2(F)CCC(F)(F)CC2)c1C(=O)N1CC(c2ccc(C#N)cc2Cl)C1` [Example 133, 3-{[3-(2-Chloro-4-cyanophenyl)azetidin-1-yl]carbonyl}-2-methoxy-4-(1,4,4-trifluorocyclohexyl)benzonitrile], the IC50 was < 100 nM.

On to `COc1c(C#N)ccc(O[C@@H](C)C(F)(F)F)c1C(=O)N1CC(c2ccc(C3CCOCC3)cn2)C1` [Example 159, 2-Methoxy-3-{3-[5-(oxan-4-yl)pyridin-2-yl]azetidine-1-carbonyl}-4-{[(2S)-1,1,1-trifluoropropan-2-yl]oxy}benzonitrile], for which the IC50 is < 100 nM.

For the compound `CC(Oc1ccc(C#N)c(Cl)c1C(=O)N1CC(c2ccc(C(F)(F)F)cc2)C1)C(F)(F)F` (stereo not shown) [Example 63, 2-Chloro-3-({3-[4-(trifluoromethyl)phenyl]azetidin-1-yl}carbonyl)-4-[(1,1,1-trifluoropropan-2-yl)oxy]benzonitrile], the IC50 was 100 to 1000 nM.
